Test results taken from US20180110762A1, “Compositions Methods for Treating Chronic Kidney Disease” (Merck Sharp & Dohme Corp, priority 2015, published 2018).

Assays:
[1] = test system: postmenopausal women; details: Phase II study; cited from earlier work
[2] = test system: male obese ZSF1 rats (diabetic nephropathy model); experiment: ZSF1 rat 28-week in-feed study: urinary protein (UPCR, 24 h excretion); format: in vivo; details: for 24 h Urinary Protein Excretion / UPCR (urinary protein/creatinine ratio): obese ZSF1 rats
Protocol: The effects of Compound A (“A”) on renal function, plasma triglycerides, plasma cholesterol, kidney collagen I, kidney collagen III, renal histology, glomerular filtration rate, fibrosis score, and mRNA gene expression (profibrotic genes and integrin β3) were evaluated in male obese ZSF1 rats (a hybrid F1 of Zucker diabetic fatty rat and spontaneously hypertensive heart failure rat; a diabetic nephropathy model) when administered as in-feed for 28 weeks. Sixty obese male ZSF1 rats were randomized to five groups: Obese control (n=12), Compound A 60 mpk (n=12), Compound A 200 mpk (n=12), Compound A 400 mpk (n=12), Enalapril 10 mpk (n=12); Eight lean male ZSF1 rats were used for normal control. Renal functional changes were monitored by blood and urine analysis following in-feed dosing for 28 weeks. Compound exposure was also monitored during the study.

[3] = target: T1, αvβ3 purified from 293 cells overexpressing αvβ3 (Homo sapiens, UniProt P05106+P06756); experiment: SPAV3 binding assay (scintillation proximity)
T1 construct: made in house; host or cells: 293 cells overexpressing αvβ3
T1 sequence (P06756 31-889 limits assumed): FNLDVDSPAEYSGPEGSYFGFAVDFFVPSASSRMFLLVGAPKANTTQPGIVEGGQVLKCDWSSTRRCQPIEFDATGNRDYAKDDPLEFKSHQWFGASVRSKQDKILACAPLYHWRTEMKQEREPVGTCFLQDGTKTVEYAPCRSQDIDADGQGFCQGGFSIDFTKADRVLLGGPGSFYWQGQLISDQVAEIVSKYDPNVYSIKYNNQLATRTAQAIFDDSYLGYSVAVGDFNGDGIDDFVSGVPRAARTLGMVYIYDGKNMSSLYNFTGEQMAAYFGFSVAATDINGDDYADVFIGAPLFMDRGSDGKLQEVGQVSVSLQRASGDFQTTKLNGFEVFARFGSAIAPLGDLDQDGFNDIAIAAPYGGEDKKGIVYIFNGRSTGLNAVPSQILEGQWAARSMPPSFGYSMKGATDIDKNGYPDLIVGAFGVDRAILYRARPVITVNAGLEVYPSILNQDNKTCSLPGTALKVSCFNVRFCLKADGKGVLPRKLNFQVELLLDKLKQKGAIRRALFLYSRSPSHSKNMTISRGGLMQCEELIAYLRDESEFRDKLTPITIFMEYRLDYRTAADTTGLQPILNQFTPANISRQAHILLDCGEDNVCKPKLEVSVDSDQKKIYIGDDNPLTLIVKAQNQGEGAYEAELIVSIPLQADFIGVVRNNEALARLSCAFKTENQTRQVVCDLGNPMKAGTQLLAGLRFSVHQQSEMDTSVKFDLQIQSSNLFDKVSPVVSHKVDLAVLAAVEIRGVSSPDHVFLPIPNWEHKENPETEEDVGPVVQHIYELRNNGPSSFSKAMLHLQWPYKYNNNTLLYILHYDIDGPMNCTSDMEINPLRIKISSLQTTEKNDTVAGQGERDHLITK
T1 sequence (P06756 891-1048 partner limits assumed): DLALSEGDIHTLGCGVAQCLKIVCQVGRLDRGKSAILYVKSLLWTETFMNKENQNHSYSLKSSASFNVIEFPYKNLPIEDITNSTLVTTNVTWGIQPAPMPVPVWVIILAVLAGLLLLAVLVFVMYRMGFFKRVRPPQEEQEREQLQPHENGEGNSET
T1 sequence (P05106 27-788): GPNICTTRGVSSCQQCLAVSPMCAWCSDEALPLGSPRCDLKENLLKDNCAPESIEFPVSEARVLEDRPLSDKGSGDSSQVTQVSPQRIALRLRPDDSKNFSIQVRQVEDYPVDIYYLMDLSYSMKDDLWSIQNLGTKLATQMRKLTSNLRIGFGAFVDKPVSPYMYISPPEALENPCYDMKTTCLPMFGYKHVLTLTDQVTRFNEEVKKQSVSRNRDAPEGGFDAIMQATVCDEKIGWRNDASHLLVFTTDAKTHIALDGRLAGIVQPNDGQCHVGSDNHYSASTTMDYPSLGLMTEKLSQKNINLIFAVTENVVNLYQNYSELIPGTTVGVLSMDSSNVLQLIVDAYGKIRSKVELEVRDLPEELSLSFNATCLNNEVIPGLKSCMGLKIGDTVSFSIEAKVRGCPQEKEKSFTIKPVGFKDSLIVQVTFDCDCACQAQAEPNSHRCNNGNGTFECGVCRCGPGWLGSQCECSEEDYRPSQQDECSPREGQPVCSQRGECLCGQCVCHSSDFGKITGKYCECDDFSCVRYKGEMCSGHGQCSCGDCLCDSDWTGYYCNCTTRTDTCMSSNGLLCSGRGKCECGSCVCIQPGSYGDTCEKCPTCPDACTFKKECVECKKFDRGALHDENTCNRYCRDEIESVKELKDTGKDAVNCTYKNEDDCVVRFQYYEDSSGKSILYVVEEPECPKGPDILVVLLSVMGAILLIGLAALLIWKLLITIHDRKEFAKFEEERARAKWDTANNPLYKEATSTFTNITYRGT
Text: • 1. Wheat germ agglutinin Scintillation Proximity Beads (SPA): Amersham • 2. Octylglucopyranoside: Calbiochem • 3. HEPES: Calbiochem • 4. NaCl: Fisher • 5. CaCl2: Fisher • 6. MgCl2: SIGMA • 7. Phenylmethylsulfonylfluoride (PMSF): SIGMA • 8. Optiplate: PACKARD • 9. (S)-3-(4-(2-(6-aminopyridin-2-yl)ethyl)benzamido)-2-((4-(iodo-^125I)phenyl)sulfonamido)propanoic acid as found in WO0046215 (specific activity 500-1000 Ci/mmole) • 10. Test compound • 11. Purified integrin receptor: αvβ3 was purified from 293 cells overexpressing αvβ3 (Duong et al., J. Bone Min. Res., 8:S378, 1993) according to Pytela (Methods in Enzymology, 144:475, 1987) • 12. Binding buffer: 50 mM HEPES, pH 7.8, 100 mM NaCl, 1 mM Ca^2+/Mg^2+, 0.5 mM PMSF • 13. 50 mM octylglucoside in binding buffer: 50-OG buffer
• 1. Pretreatment of SPA beads: • 500 mg of lyophilized SPA beads were first washed four times with 200 ml of 50-OG buffer and once with 100 ml of binding buffer, and then resuspended in 12.5 ml of binding buffer. • 2. Preparation of SPA beads and receptor mixture • In each assay tube, 2.5 μl (40 mg/ml) of pretreated beads were suspended in 97.5 μl of binding buffer and […] of 50-OG buffer. […] (˜30 ng/μ1) of purified receptor was added to the beads in suspension with stirring at room temperature for 30 minutes. The mixture was then centrifuged at 2,500 rpm in a Beckman GPR Benchtop centrifuge for 10 minutes at 4° C. The pellets were then resuspended in 50 μl of binding buffer and 25 μl of 50-OG buffer. • 3. Reaction • The following were sequentially added into Optiplate in corresponding wells: • (i) Receptor/beads mixture (75 μl) • (ii) 25 μl of each of the following: compound to be tested, binding buffer for total binding or A-8 for non-specific binding (final concentration 1 μM) • (iii) (S)-3-(4-(2-(6-aminopyridin-2-yl)ethyl)benzamido)-2-((4-(iodo-^125I)phenyl)sulfonamido)propanoic acid as found in WO0046215 (specific activity 500-1000 Ci/mmole) in binding buffer (25 μl, final concentration 40 pM) • (iv) Binding buffer (125 μl) • (v) Each plate was sealed with plate sealer from PACKARD and incubated overnight with rocking at 4° C. • 4. Plates were counted using PACKARD TOPCOUNT • 5. % inhibition was calculated as follows: • A=total counts • B=nonspecific counts • C=sample counts
% inhibition=[{(A−B)−(C−B)}/(A−B)]/(A−B)×100

COc1ccc([C@H](CC(=O)O)N2CCN(CCCc3ccc4c(n3)NCCC4)C2=O)cn1 [Compound A, 3-{2-Oxo-3-[3-(5,6,7,8-tetrahydro-[1,8]naphthyridin-2-yl)-propyl]imidazolidin-1-yl}-3 (S)-(6-methoxy-pyridin-3-yl)-propionic acid]
bone density [1]: increase bone density | effect on urinary protein/creatinine ratio (UPCR) ([2]; 400 mpk, 16-, 21-, 24- and 28-week of treatment): significantly decreased | effect on 24 h urinary protein excretion ([2]; 400 mpk, 16-, 24- and 28-week of treatment): significantly decreased | renal protection: proteinuria and albuminuria ([2]; ZSF-1 rats vs untreated obese ZSF-1 rats (summary)): ameliorating proteinuria and albuminuria | 24 h Urinary Protein Excretion ([2]; 60 mpk in-feed, week 1): 137.2 ± 12.7 mg/24 h | UPCR (urinary protein/creatinine ratio) ([2]; 60 mpk in-feed, week 1): 12.3 ± 1.0 mg/mg | 24 h Urinary Protein Excretion ([2]; 60 mpk in-feed, week 2): 139.6 ± 11.8 mg/24 h | UPCR (urinary protein/creatinine ratio) ([2]; 60 mpk in-feed, week 2): 11.9 ± 1.0 mg/mg | 24 h Urinary Protein Excretion ([2]; 60 mpk in-feed, week 4): 158.4 ± 13.7 mg/24 h | UPCR (urinary protein/creatinine ratio) ([2]; 60 mpk in-feed, week 4): 13.4 ± 1.1 mg/mg | 24 h Urinary Protein Excretion ([2]; 60 mpk in-feed, week 6): 197.9 ± 15.7 mg/24 h | UPCR (urinary protein/creatinine ratio) ([2]; 60 mpk in-feed, week 6): 16.6 ± 1.2 mg/mg | 24 h Urinary Protein Excretion ([2]; 60 mpk in-feed, week 8): 265.7 ± 18.3 mg/24 h | UPCR (urinary protein/creatinine ratio) ([2]; 60 mpk in-feed, week 8): 20.2 ± 1.4 mg/mg | 24 h Urinary Protein Excretion ([2]; 60 mpk in-feed, week 12): 425.3 ± 21.6 mg/24 h | UPCR (urinary protein/creatinine ratio) ([2]; 60 mpk in-feed, week 12): 30.8 ± 1.7 mg/mg | 24 h Urinary Protein Excretion ([2]; 60 mpk in-feed, week 16): 462.2 ± 30.4 mg/24 h | UPCR (urinary protein/creatinine ratio) ([2]; 60 mpk in-feed, week 16): 27.3 ± 1.7 mg/mg | 24 h Urinary Protein Excretion ([2]; 60 mpk in-feed, week 21): 486.2 ± 39.2 mg/24 h | UPCR (urinary protein/creatinine ratio) ([2]; 60 mpk in-feed, week 21): 27.7 ± 2.0+ mg/mg | 24 h Urinary Protein Excretion ([2]; 60 mpk in-feed, week 24): 582.0 ± 43.9 mg/24 h | UPCR (urinary protein/creatinine ratio) ([2]; 60 mpk in-feed, week 24): 34.4 ± 2.3 mg/mg | 24 h Urinary Protein Excretion ([2]; 60 mpk in-feed, week 28): 654.3 ± 48.1 mg/24 h | UPCR (urinary protein/creatinine ratio) ([2]; 60 mpk in-feed, week 28): 37.5 ± 2.8 mg/mg | 24 h Urinary Protein Excretion ([2]; 60 mpk in-feed, week −2): 128.8 ± 11.0 mg/24 h | UPCR (urinary protein/creatinine ratio) ([2]; 60 mpk in-feed, week −2): 10.9 ± 0.9 mg/mg | 24 h Urinary Protein Excretion ([2]; 200 mpk in-feed, week 1): 117.7 ± 9.4 mg/24 h | UPCR (urinary protein/creatinine ratio) ([2]; 200 mpk in-feed, week 1): 10.7 ± 0.8 mg/mg | 24 h Urinary Protein Excretion ([2]; 200 mpk in-feed, week 2): 124.9 ± 10.9 mg/24 h | UPCR (urinary protein/creatinine ratio) ([2]; 200 mpk in-feed, week 2): 10.9 ± 1.0 mg/mg | 24 h Urinary Protein Excretion ([2]; 200 mpk in-feed, week 4): 140.0 ± 12.4 mg/24 h | UPCR (urinary protein/creatinine ratio) ([2]; 200 mpk in-feed, week 4): 12.1 ± 1.1 mg/mg | 24 h Urinary Protein Excretion ([2]; 200 mpk in-feed, week 6): 167.1 ± 15.0 mg/24 h | UPCR (urinary protein/creatinine ratio) ([2]; 200 mpk in-feed, week 6): 14.1 ± 1.2 mg/mg | 24 h Urinary Protein Excretion ([2]; 200 mpk in-feed, week 8): 233.9 ± 18.7 mg/24 h | UPCR (urinary protein/creatinine ratio) ([2]; 200 mpk in-feed, week 8): 18.0 ± 1.5 mg/mg | 24 h Urinary Protein Excretion ([2]; 200 mpk in-feed, week 12): 400.5 ± 20.5 mg/24 h | UPCR (urinary protein/creatinine ratio) ([2]; 200 mpk in-feed, week 12): 28.7 ± 1.6 mg/mg | 24 h Urinary Protein Excretion ([2]; 200 mpk in-feed, week 16): 452.2 ± 27.6 mg/24 h | UPCR (urinary protein/creatinine ratio) ([2]; 200 mpk in-feed, week 16): 26.3 ± 1.5 mg/mg | 24 h Urinary Protein Excretion ([2]; 200 mpk in-feed, week 21): 489.0 ± 28.6 mg/24 h | UPCR (urinary protein/creatinine ratio) ([2]; 200 mpk in-feed, week 21): 28.1 ± 1.6+ mg/mg | 24 h Urinary Protein Excretion ([2]; 200 mpk in-feed, week 24): 541.6 ± 32.3 mg/24 h | UPCR (urinary protein/creatinine ratio) ([2]; 200 mpk in-feed, week 24): 32.0 ± 1.9 mg/mg | 24 h Urinary Protein Excretion ([2]; 200 mpk in-feed, week 28): 646.2 ± 44.6 mg/24 h | UPCR (urinary protein/creatinine ratio) ([2]; 200 mpk in-feed, week 28): 36.5 ± 2.3 mg/mg | 24 h Urinary Protein Excretion ([2]; 200 mpk in-feed, week −2): 122.3 ± 9.5 mg/24 h | UPCR (urinary protein/creatinine ratio) ([2]; 200 mpk in-feed, week −2): 10.7 ± 0.9 mg/mg | 24 h Urinary Protein Excretion ([2]; 400 mpk in-feed, week 1): 138.5 ± 11.3 mg/24 h | UPCR (urinary protein/creatinine ratio) ([2]; 400 mpk in-feed, week 1): 12.3 ± 0.9 mg/mg | 24 h Urinary Protein Excretion ([2]; 400 mpk in-feed, week 2): 148.8 ± 12.3 mg/24 h | UPCR (urinary protein/creatinine ratio) ([2]; 400 mpk in-feed, week 2): 12.5 ± 0.9 mg/mg | 24 h Urinary Protein Excretion ([2]; 400 mpk in-feed, week 4): 148.0 ± 8.3 mg/24 h | UPCR (urinary protein/creatinine ratio) ([2]; 400 mpk in-feed, week 4): 12.7 ± 0.6 mg/mg | 24 h Urinary Protein Excretion ([2]; 400 mpk in-feed, week 6): 162.6 ± 11.7 mg/24 h | UPCR (urinary protein/creatinine ratio) ([2]; 400 mpk in-feed, week 6): 13.8 ± 0.9 mg/mg | 24 h Urinary Protein Excretion ([2]; 400 mpk in-feed, week 8): 224.8 ± 16.3 mg/24 h | UPCR (urinary protein/creatinine ratio) ([2]; 400 mpk in-feed, week 8): 17.8 ± 1.2 mg/mg | 24 h Urinary Protein Excretion ([2]; 400 mpk in-feed, week 12): 358.4 ± 19.9 mg/24 h | UPCR (urinary protein/creatinine ratio) ([2]; 400 mpk in-feed, week 12): 26.9 ± 1.5 mg/mg | 24 h Urinary Protein Excretion ([2]; 400 mpk in-feed, week 16): 360.5 ± 19.7++ mg/24 h | UPCR (urinary protein/creatinine ratio) ([2]; 400 mpk in-feed, week 16): 20.9 ± 1.0++ mg/mg | 24 h Urinary Protein Excretion ([2]; 400 mpk in-feed, week 21): 448.1 ± 19.6 mg/24 h | UPCR (urinary protein/creatinine ratio) ([2]; 400 mpk in-feed, week 21): 26.0 ± 1.3++ mg/mg | 24 h Urinary Protein Excretion ([2]; 400 mpk in-feed, week 24): 483.8 ± 27.1++ mg/24 h | UPCR (urinary protein/creatinine ratio) ([2]; 400 mpk in-feed, week 24): 28.1 ± 1.7++ mg/mg | 24 h Urinary Protein Excretion ([2]; 400 mpk in-feed, week 28): 554.9 ± 28.3++ mg/24 h | UPCR (urinary protein/creatinine ratio) ([2]; 400 mpk in-feed, week 28): 31.2 ± 1.7++ mg/mg | 24 h Urinary Protein Excretion ([2]; 400 mpk in-feed, week −2): 127.0 ± 11.0 mg/24 h | UPCR (urinary protein/creatinine ratio) ([2]; 400 mpk in-feed, week −2): 10.8 ± 0.9 mg/mg | IC50 [3]: 0.1 nM
